Series [1] is described as follows: Example 3: mice injected intraperitoneally, body weight and plasma calcium. The conditions noted are these: mouse, in vivo, ip.
For series [2], the system named is VDR target gene CYP24. The series is described as follows: Example 3: mice injected intraperitoneally, expression of VDR target gene CYP24 in kidney. Format: in vivo. The conditions noted are these: intraperitoneal, every other day, day 8.
In series [3] the test system is Human myeloid leukemia HL60 cells. Kind of series: Differentiation of myeloid leukemia HL60 cells (Nitro blue tetrazolium-reducing activity). In kind it is cell-based. Conditions: for induction of differentiation marker (Nitro blue tetrazolium-reducing activity), HL60 cells: 3 days.
Series [4] relates to U937 cells. The series is described as follows: Differentiation markers of myeloid leukemia U937 cells. Format: cell-based.
Series [5] relates to Cyp24a1, calbindin D9k, Trpv6, Trpv5. Kind of series: Example 5: intraperitoneal administration to mice, mRNA expression in kidney and intestinal mucosa. Format: in vivo. Conditions: day 8. The source says:
Blood was collected by heart puncture on day 8 and tissue mRNAs on day 8 were examined.

For series [6] the test system is unchanged. The series is described as follows: Example 5: oral administration to mice, mRNA expression in kidney and intestinal mucosa. Format: in vivo. The source says:
Blood was collected from the tail on days 0, 2, 4, 6, and 8, and by heart puncture on day 12. […]
(§1) Next, the in vivo effects of orally administered lithocholic acid derivatives (dissolved in corn oil) were examined.

In series [7] the target is T1, farnesoid X receptor (FXR) (Homo sapiens, UniProt Q96RI1).
T1 sequence (Q96RI1 1-486): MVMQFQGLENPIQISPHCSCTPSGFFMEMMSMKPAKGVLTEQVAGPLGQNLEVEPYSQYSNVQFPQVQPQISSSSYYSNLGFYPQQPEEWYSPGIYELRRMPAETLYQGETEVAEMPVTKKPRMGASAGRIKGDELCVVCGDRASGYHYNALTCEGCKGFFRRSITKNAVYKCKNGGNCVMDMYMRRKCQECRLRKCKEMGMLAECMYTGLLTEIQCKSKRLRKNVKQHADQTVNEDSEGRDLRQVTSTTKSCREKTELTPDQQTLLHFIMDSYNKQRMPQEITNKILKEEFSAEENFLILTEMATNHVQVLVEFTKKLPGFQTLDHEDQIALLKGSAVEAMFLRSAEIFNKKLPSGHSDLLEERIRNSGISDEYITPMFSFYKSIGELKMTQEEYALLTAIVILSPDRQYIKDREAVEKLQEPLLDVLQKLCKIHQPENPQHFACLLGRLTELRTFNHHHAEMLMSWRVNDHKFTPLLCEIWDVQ
Kind of series: Effect on FXR (FIG. 1). Conditions: 18 μM.

Series [8] has as its target T2, G protein-coupled bile acid receptor 1 (GPBAR1) (Homo sapiens, UniProt Q8TDU6).
T2 sequence (Q8TDU6 1-330): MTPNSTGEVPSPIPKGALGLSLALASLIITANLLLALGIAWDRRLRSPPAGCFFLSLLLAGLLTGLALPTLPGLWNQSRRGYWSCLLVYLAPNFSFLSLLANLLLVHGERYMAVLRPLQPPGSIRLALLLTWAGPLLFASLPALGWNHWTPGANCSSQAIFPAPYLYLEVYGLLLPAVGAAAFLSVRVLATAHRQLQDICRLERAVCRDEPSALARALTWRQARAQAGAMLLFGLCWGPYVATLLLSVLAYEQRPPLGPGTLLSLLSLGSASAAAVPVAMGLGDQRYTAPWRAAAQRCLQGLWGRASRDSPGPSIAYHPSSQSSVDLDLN
Kind of series: Effect on GPBAR1 (FIG. 1). The conditions noted are these: 10 μM.

Series [9] concerns the target T3, VDR (Homo sapiens, UniProt P11473).
T3 sequence (P11473 127-423 limits assumed): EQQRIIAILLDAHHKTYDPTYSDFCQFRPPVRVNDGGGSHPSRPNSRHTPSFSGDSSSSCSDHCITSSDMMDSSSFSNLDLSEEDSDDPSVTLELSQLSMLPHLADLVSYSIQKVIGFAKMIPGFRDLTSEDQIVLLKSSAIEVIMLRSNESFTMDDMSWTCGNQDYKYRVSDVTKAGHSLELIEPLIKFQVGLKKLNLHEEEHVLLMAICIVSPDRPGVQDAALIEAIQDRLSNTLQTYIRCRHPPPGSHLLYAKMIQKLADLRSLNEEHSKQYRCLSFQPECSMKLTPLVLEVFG
Kind of series: VDR activation, GAL4-VDR luciferase reporter in HEK293 cells. Conditions: compared with lithocholic acid and lithocholic acid acetate.
Method: Cells were solubilized 16 to 18 hours later, and evaluated for the luciferase activity.

For series [10], the system named is myeloid leukemia cells. Conditions: compared with 1,25(OH)2D3; Honma et al. 1983; cited from earlier work.
The conditions of series [11]: Honma et al. 1983; cited from earlier work.
Series [12] in a line: Example 5: intraperitoneal administration to mice, body weight and plasma calcium. In kind it is in vivo. Conditions: 0.7 mmol/kg. From the text:
[…]. […] […]. Blood was collected by heart puncture on day 8 and tissue mRNAs on day 8 were examined.

A short description of series [13]: Example 5: oral administration to mice, body weight and plasma calcium. The conditions noted are these: oral (gavage), 1 mmol/kg.
Source text: Blood was collected from the tail on days 0, 2, 4, 6, and 8, and by heart puncture on day 12. Tissue mRNAs on day 12 were examined. * indicates p<0.05; ** indicates p<0.01; *** indicates p<0.001, compared with vehicle control.
as §1

Series [14] deals with T1, farnesoid X receptor (FXR). Conditions: Non-Patent Documents 3 and 4; cited from earlier work.
Series [15] addresses T4, VDR (Homo sapiens, UniProt P11473).
T4 sequence (P11473 1-427): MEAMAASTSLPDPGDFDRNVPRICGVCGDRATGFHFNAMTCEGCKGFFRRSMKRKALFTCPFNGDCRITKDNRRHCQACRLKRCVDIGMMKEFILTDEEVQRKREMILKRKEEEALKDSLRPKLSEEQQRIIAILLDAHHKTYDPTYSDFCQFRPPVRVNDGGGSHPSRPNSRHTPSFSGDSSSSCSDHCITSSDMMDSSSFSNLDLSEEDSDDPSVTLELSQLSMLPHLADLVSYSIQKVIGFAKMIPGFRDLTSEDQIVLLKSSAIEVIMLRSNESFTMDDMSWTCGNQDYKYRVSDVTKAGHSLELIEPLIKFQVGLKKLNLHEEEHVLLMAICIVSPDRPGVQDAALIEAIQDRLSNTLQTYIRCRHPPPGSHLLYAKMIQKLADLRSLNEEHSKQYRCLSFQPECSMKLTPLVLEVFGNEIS
The conditions noted are these: Non-Patent Documents 2 and 3; cited from earlier work.

In series [16] the test system is leukemic cells. The conditions noted are these: cited from earlier work.

“Also recorded” adds a separate entry of the source.

The source of these data is US9278992B2, “Function-selective vitamin D receptor agonist” (Nihon University, priority 2007, dated 2016).

Consider `CCC(=O)O[C@@H]1CC[C@@]2(C)[C@H](CC[C@@H]3[C@@H]2CC[C@]2(C)[C@@H]([C@H](C)CCC(=O)O)CC[C@@H]32)C1` [lithocholic acid propionate], for which the “body weight of mice” value in [1] is given as “did not adversely affect the body weight or the blood calcium level”. Moreover, the “expression of the VDR target gene CYP24 in kidney” value in series [2] is given as “induced the expression of the VDR target gene in the organ”. The “induction of differentiation markers, HL-60 cells” value in series [3] was “induced the differentiation markers”. The “induction of differentiation marker (Nitro blue tetrazolium-reducing activity), HL60 cells” value in series [3] (10 μM) was “weakly”; in series [3] (30 μM) it was “effectively”. In [4], the “induction of differentiation markers, U937 cells” value is “induced the differentiation markers”. The “intestinal mucosa target gene expression” value in series [5] (0.7 mmol/kg) is given as “not effective in inducing intestinal mucosa target gene expression”. The “kidney Cyp24a1 expression” value is reported as “induced the expression of kidney Cyp24a1 as effectively as 1α(OH)D3” in series [5] (0.7 mmol/kg); “induced the kidney Cyp24a1 expression as effectively as 1α(OH)D3” in series [6] (oral (gavage), 0.7 mmol/kg and 1 mmol/kg, day 12). In [6] (oral (gavage), day 12), the “kidney calbindin D9k expression” value is on record as “not induced”. Further, in [7], the “potency on FXR” value was “extremely weak potency on FXR”. Also, the “effects on GPBAR1” value in series [8] is on record as “extremely weak effects”. Further, the “selectivity as VDR ligand (VDR versus FXR and GPBAR1)” value in series [9] was “more selective VDR ligand (activating agent) than lithocholic acid and lithocholic acid acetate”.

As to `C=C1/C(=C\C=C2/CCC[C@]3(C)[C@@H]([C@H](C)CCCC(C)C)CC[C@@H]23)C[C@@H](O)C[C@@H]1O` [1α-hydroxyvitamin D3], the “body weight of mice” value in series [1] is “decreased the body weight of mice”. For the same compound, in series [5] (12.5 nmol/kg), the “intestinal mucosa Cyp24a1 expression” value is “induced the intestinal mucosa Cyp24a1 expression”, the “kidney Cyp24a1 expression” value is reported as “effectively induced the expression”, the “kidney Trpv5 expression” value is “effectively induced the expression” and the “kidney Trpv6 expression” value is given as “effectively induced the expression”. Also, the “kidney calbindin D9k expression” value in [5] (12.5 nmol/kg) is on record as “effectively induced the expression”. Also, the “intestinal mucosa Cyp24a1 expression” value in series [6] (1 day single oral dose (data not shown)) was “not observed”. For the same compound, the “intestinal mucosa Cyp24a1 expression” value in series [6] (10 day oral administration, 12.5 nmol/kg) was “not increased”. Besides, the “survival time of the mice inoculated with leukemia cells” value in [10] is recorded as “more effective than 1,25(OH)2D3 in increasing the survival time”. Besides, the “conversion to 1,25-dihydroxyvitamin D3 after injection” value in series [11] is “rapidly converted to 1,25-dihydroxyvitamin D3”.

In the case of lithocholic acid acetate, the figures for the “induction of differentiation marker (Nitro blue tetrazolium-reducing activity), HL60 cells” value in series [3] (10 μM) and in series [3] (30 μM) were “weakly” and “effectively”, respectively. Besides, the body weight entry in series [12] is “did not decrease their body weight”; in [13], “did not affect the body weight or plasma calcium”. In series [13], the plasma calcium entry is “did not affect the body weight or plasma calcium”. Also, in series [14], the “activity on FXR” value was “weaker than that of chenodeoxycholic acid and comparable to that of lithocholic acid”. Further, the “function and potency as VDR ligand” value in [15] was “activated VDR more potently than lithocholic acid; also recorded: more potency on VDR than lithocholic acid”. The “differentiation of leukemic cells” value in [16] is listed as “induced the differentiation of leukemic cells”.
